Experimental data taken from US6441134B1, “Isolated Candida albicans oligopeptide transporter gene” (The University of Tennessee Research Corporation, dated 2002).
Non-standard residues stand in square brackets, D forms with d. No end group written: not given here.

Columns and labels:
Assay type in all cases: cell-based, Saccharomyces cerevisiae
[1] = test system: S. cerevisiae PB1X-9B(pOPT1); conditions: ammonium sulfate as nitrogen source; 0.38 μmoles per 6 mm disk; 24-48 hr
Procedure: (§1) S. cerevisiae PB1X-9B is sensitive to the toxic amino acid ethionine Eth) but is resistant to ethionine containing di-, tri-, tetra-, and pentapeptides. Disk sensitivity assays was utilized to determine if cells transformed with pOPT1 were sensitive to toxic peptides and whether this sensitivity was dependent upon nitrogen source.
(§2) Sensitivity to ethionine, a toxic methionine analog, and ethionine-containing peptides was determined by the method described by Island et al. (1987). Cells were grown overnight to exponential phase of growth in SC, washed, and resuspended at 5×10^6 cells /ml in sterile water. One ml of this cell suspension was added to 3 ml molten Noble agar (0.8% final concentration) and overlayed on 20 ml of the same medium used to prepare the inoculum. A disk (6 mm diameter, Difco) was placed on the plate and 0.38 μmoles of the compounds to be tested were applied to the disks. Zones of inhibition were measured after 24-48 hr incubation at 30 iC. Each test comprised at least three independent assays and the results represented in the Tables are means of the values obtained. Maximum variation between the zones of inhibition measured for each test were ^23 mm. A value of 7 mm for the diameter of zone of inhibition represents a minimal growth inhibition value as the disk diameter was 6 mm. Photodocumentation of sensitivity assays was done with a Umax Scanner and processed through Adobe Photoshop.

S. cerevisiae PB1X-9B = test: Sensitivity of untransformed S. cerevisiae PB1X-9B to ethionine and ethionine peptides
Procedure: as §1
as §2, with “Photodocumentation of sensitivity assays was done with a Umax Scanner and processed through Adobe Photoshop.” left out

[2] = test system: S. cerevisiae PB1X-9B(pOPT1); test: Peptide transport assay, accumulation of KLG-[3H]L, PB1X-9B(pOPT1)
Procedure: (§3) To determine if S. cerevisiae transformants harboring pOPT1 could accumulate a radiolabeled tetrapeptide, uptake assays were performed with the radiolabeled substrate KLG-[^3H]L SEQ ID NO:7 with cells grown to log phase in SC-Ura with either ammonium sulfate or 0.1% proline as a nitrogen source. […] This higher initial rate can be explained by overexpression due to high copy number or alternatively by the lack of requisite regulatory elements which may be absent in the heterologous host.
Uptake of KLG-[^3H]L SEQ ID NO:7 was determined using a protocol for uptake of dipeptides as described by Basrai et al. (1995) with a few modifications. S. cerevisiae cultures were grown overnight to exponential phase in SC-Ura medium. Cells were harvested by centrifugation, and resuspended in 2% glucose at a cell density of 2×10^8 cells/ml. Two hundred and fifty microliters of cell suspension were added to an equal volume of an uptake assay reaction mixture and incubated at 30iC. The final concentrations of the components in the uptake assay solution were: glucose (2%, w/v), 10 mM sodium citrate/potassium phosphate buffer (pH 5.0), and KLG-[^3H]L SEQ ID NO:7 (150 μM; 8.5 mCi/mmol). Competition experiments were done in the presence of either 1.5 mM L, KL, KLG, KLLG SEQ ID NO:6, or KLLLG SEQ ID NO:8. At various time points, 90 μl portions were removed and filtered through a membrane. The yeast cells retained on the filter were washed twice with ice-cold distilled water, once with room temperature distilled water, and the residual radioactivity was measured by liquid scintillation. There was no peptide adsorption to the cell surface or sticking to filters since at 0i C the counts were at background level. The uptake results, calculated on the basis of 50% counting efficiency (determined using L-[^3H]lysine as a standard, and the specific activity of the peptide), were expressed as nmol of peptide uptake per minute per mg cell dry weight.

[3] = test system: S. cerevisiae PB1X-9B(pRS202); test: Peptide transport assay, accumulation of KLG-[3H]L, PB1X-9B(pRS202); conditions: cells grown in SC with ammonium sulfate; 150 μM substrate
Procedure: as §3
Uptake of KLG-[^3H]L SEQ ID NO:7 was determined using a protocol for uptake of dipeptides as described by Basrai et al. (1995) with a few modifications. S. cerevisiae cultures were grown overnight to exponential phase in SC-Ura medium. Cells were harvested by centrifugation, and resuspended in 2% glucose at a cell density of 2×10^8 cells/ml. […] The yeast cells retained on the filter were washed twice with ice-cold distilled water, once with room temperature distilled water, and the residual radioactivity was measured by liquid scintillation. […] The uptake results, calculated on the basis of 50% counting efficiency (determined using L-[^3H]lysine as a standard, and the specific activity of the peptide), were expressed as nmol of peptide uptake per minute per mg cell dry weight.

With `CCSCC[C@H](N)C(=O)O` [ethionine, Ethionine] the “zone of growth inhibition” value [1] was 33 mm and the “sensitivity / resistance of the strain” value (S. cerevisiae PB1X-9B) was “sensitive”.

For “Lys-Leu-Gly-[^3H]Leu (KLG[3H‑Leu]) [KLG-[^3H]L]”, the “uptake rate of KLG-[3H]L, no competitor” value ([2]; SC-Ura with ammonium sulfate, 150 μM substrate, best fit of slope over 12 min) was 0.24 nm/min/mg of dry weight, the “initial rate of uptake compared to C. albicans SC5314” value ([2]; both grown in SC with ammonium sulfate) was “higher initial rate of uptake” and the “uptake rate of radiolabeled tetrapeptide” value ([2]; cells grown in SC with ammonium sulfate, 150 μM substrate) was “significant uptake rate”. For the same molecule, the “initial uptake rate, PB1X-9B(pOPT1) relative to PB1X-9B(pRS202)” value ([2]; growth media with proline as nitrogen source) was 2.5 times and the “uptake of radiolabeled tetrapeptide” value [3] was “no uptake”.
